# Assay results from patent publication US8410150B2, “Inhibitors of carnitine palmitoyltransferase and treating cancer” (University Health Network, priority 2007, dated 2013).
# Target: T1, human CPT1A (Homo sapiens, UniProt P50416)
# T1 construct: made in house; host or cells: Saccharomyces cerevisiae (pESC-trp) or cultured mammalian cells (pCDNA3.1); mitochondrial extract
# T1 sequence (P50416 1-773): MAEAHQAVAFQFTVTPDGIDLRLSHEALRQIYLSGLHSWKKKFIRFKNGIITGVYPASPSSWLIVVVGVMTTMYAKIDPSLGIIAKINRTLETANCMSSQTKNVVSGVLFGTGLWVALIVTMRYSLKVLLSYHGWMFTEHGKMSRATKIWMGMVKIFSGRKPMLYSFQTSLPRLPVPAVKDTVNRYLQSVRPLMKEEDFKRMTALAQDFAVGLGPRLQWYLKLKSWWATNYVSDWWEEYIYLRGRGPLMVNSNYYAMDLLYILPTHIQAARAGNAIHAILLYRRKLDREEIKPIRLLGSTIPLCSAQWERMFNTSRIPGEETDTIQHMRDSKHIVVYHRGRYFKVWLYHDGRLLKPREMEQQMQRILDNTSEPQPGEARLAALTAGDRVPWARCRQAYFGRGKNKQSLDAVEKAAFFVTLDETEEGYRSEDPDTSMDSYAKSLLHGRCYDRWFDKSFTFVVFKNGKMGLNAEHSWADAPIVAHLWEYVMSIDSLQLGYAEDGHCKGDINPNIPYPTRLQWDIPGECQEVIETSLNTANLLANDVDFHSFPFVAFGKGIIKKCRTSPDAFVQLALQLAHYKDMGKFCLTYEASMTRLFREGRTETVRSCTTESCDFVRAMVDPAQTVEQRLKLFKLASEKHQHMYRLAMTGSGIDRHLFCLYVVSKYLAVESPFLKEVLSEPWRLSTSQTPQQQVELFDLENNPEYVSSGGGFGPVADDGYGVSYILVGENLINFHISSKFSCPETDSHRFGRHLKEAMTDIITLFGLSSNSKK
# Assay: Human CPT1A LC/MS assay
# Format: biochemical
# Conditions: human CPT1A LC/MS assay, dose response format
# Source text: Nucleotide sequences encoding human CPT1 enzymes were individually cloned into the yeast expression vector pESC-trp at the Cla1 (5′ terminus) and Pac1 (3′ terminus) restriction sites by PCR amplification of the open reading frame using oligonucleotide primers designed to encode the wild-type CPT1 protein sequence. Standard molecular biology techniques were used to transform and express the CPT1 proteins in the yeast Saccharomyces cerevisiae. The yeast cells were lysed by enzymatic degradation of the cell wall by Zymolase, and the mitochondria were isolated by standard biochemical techniques. The integrity of the isolated mitochondria was monitored by determining the activity of succinate dehydrogenase in the mitochondrial preparations. The mitochondrial extracts were stored at −80° C. in buffer containing 10 mM HEPES pH 7.4 and 250 mM sucrose.
# Human CPT1 (A, B, C) genes were additionally cloned into the pCDNA3.1 vector individually for expression in cultured mammalian cells. Cells expressing the exogenous CPT1A were identified and grown under standard conditions. Mammalian cells were harvested, and mitochondrial extracts prepared using standard biochemical methods. The mitochondrial extracts were stored at −80° C. in buffer containing 10 mM HEPES pH 7.4 and 250 mM sucrose.
# Assays were performed in 96-well plate format. Each 100 μL reaction contained 40 mM KCl, 50 mM TrisHCl pH 7.5, and 250 mM mannitol (Assay Buffer), and 1.6 μg protein of an extract, 20 μM palmitoyl-CoA, 50 μM L-carnitine, and 10 ug/mL BSA. Reactions were incubated at room temperature and stopped after 10 minutes by extraction with 200 μL of water saturated n-butanol containing myristoyl carnitine (500 nM) as an internal standard. The samples were thoroughly mixed, and the phases separated by centrifugation. Samples were prepared for analysis with a 10 fold dilution of the n-butanol phase containing the reaction product palmitoyl carnitine into a 50:50 (acetonitrile:water) solvent for analysis. […] of prepared sample was separated on a Phenomenex Jupiter 5μ C4 reverse-phase column using an Agilent 1100 HPLC with a gradient from 50% acetonitrile (0.5% acetic acid) to 100% acetonitrile and quantified by detection with a Bruker Esquire 3000plus mass spectrometer. The abundance of the palmitoyl carnitine product was determined relative to the internal standard and the actual quantity of palmitoyl carnitine can be determined from a standard curve prepared using the n-butanol solution containing the internal standard.
# Compounds were evaluated in two formats, a screening format, and a dose response format. The screening format was performed by adding 25 μL compound in 20% DMSO and Assay Buffer to 25 μL of extract containing […] and Assay Buffer, followed by a 10 minute incubation at room temperature. 50 μL of 40 μM palmitoyl-CoA in Assay Buffer was added to the reaction mixture, mixed and incubated for 10 minutes at room temperature. A negative control for activity was also performed where the carnitine was omitted from the reaction. A positive control for activity was also performed by omitting compound from the solution containing 20% DMSO and Assay Buffer. The reaction mixture was extracted and analyzed as described above. The inhibition by compound was determined by comparing the control relative activity to the relative activity observed in wells containing the compound. Relative activity was determined by subtracting the relative intensity (area palmitoyl carnitine/area myristoyl carnitine) observed in the negative control from the relative intensity observed in the experimental well, and dividing by the relative activity observed in the positive control.
# [formula] Compound characterization by dose response format was performed using the above described assay conditions and a 16 point compound titration in 2 fold compound dilution steps. The DMSO concentration was kept constant at 20% (v/v) for all compound concentrations.
row,SMILES,IC50 [µM]
1,"CCCOc1ccc(C(=O)N[C@H](CC(=O)[O-])C[N+](C)(C)C)cc1 [Example S1, (R)-3-(4-propoxybenzamido)-4-(trimethylammonio)butanoate]",100 to 1000
2,"C[N+](C)(C)C[C@@H](CC(=O)O)NC(=O)c1ccc(NS(=O)(=O)c2cccs2)cc1 [Example S2, (R)-3-(4-(thiophene-2-sulfonamido)benzamido)-4-(trimethylammonio)-butanoate]",100 to 1000
3,"Cc1ccoc1C(=O)Nc1ccc(C(=O)N[C@H](CC(=O)[O-])C[N+](C)(C)C)cc1 [Example S5, (R)-3-(4-(3-methylfuran-2-carboxamido)benzamido)-4-(trimethylammonio)-butanoate]",100 to 1000
4,"C[N+](C)(C)C[C@@H](CC(=O)[O-])NC(=O)Nc1ccc(C(F)(F)F)cc1Cl [Example S6, (R)-3-(3-(2-chloro-4-(trifluoromethyl)phenyl)ureido)-4-(trimethylammonio)-butanoate]",100 to 1000
5,"Cc1nc(-c2ccccc2)sc1NC(=O)N[C@H](CC(=O)[O-])C[N+](C)(C)C [Example S9, (R)-3-(3-(4-methyl-2-phenylthiazol-5-yl)ureido)-4-(trimethylammonio)-butanoate]",1000 to 2500
6,"C[N+](C)(C)C[C@@H](CC(=O)[O-])NC(=O)Nc1ccc(-c2cccs2)cc1 [Example S11, (R)-3-(3-(4-(thiophen-2-yl)phenyl)ureido)-4-(trimethylammonio)butanoate]",100 to 1000
7,"C[N+](C)(C)C[C@@H](CC(=O)O)NC(=O)Nc1ccc(OCc2ccccc2)cc1 [Example S12, (R)-3-(3-(4-(Benzyloxy)phenyl)ureido)-4-(trimethylammonio)butanoate acetate]",100 to 1000
8,"CCCCc1ccc(NC(=O)N[C@H](CC(=O)[O-])C[N+](C)(C)C)c(C)c1 [Example S13, (R)-2-(3-(4-Butyl-2-methylphenyl)ureido)-3-carboxy-N,N,N-trimethylpropan-1-aminium]",1000 to 2500
9,"C[N+](C)(C)C[C@@H](CC(=O)O)NC(=O)Nc1ccc(F)c(F)c1F [Example S14, (R)-3-Carboxy-N,N,N-trimethyl-2-(3-(2,3,4-trifluorophenyl)ureido)-propan-1-aminium acetate]",1000 to 2500
10,"C[N+](C)(C)C[C@@H](CC(=O)O)NC(=O)Nc1ccc(-c2ccccc2)cc1 [Example S17, (R)-2-(3-Biphenyl-4-ylureido)-3-carboxy-N,N,N-trimethylpropan-1-aminium acetate]",100 to 1000
11,"C[N+](C)(C)C[C@@H](CC(=O)O)NS(=O)(=O)c1ccc(Oc2ccccc2)nc1 [Example S19, (R)-3-carboxy-N,N,N-trimethyl-2-(6-phenoxypyridine-3-sulfonamido)propan-1-aminium 2,2,2-trifluoroacetate]",100 to 1000
12,"C[N+](C)(C)C[C@@H](CC(=O)O)NS(=O)(=O)c1ccc(-c2ccccn2)s1 [Example S21, (R)-3-(5-(pyridin-2-yl)thiophene-2-sulfonamido)-4-(trimethylammonio)-butanoate 2,2,2-trifluoroacetate]",1000 to 2500
13,"C[N+](C)(C)C[C@@H](CC(=O)O)NS(=O)(=O)c1ccc(-c2ccno2)s1 [Example S22, (R)-3-carboxy-2-(5-(isoxazol-5-yl)thiophene-2-sulfonamido)-N,N,N-trimethylpropan-1-aminium 2,2,2-trifluoroacetate]",1000 to 2500
14,"CN(C)C[C@@H](CC(=O)O)NC(=O)N(C)c1ccc(Oc2ccccc2)cc1 [Example S33, (R)-4-(dimethylammonio)-3-(3-methyl-3-(4-phenoxyphenyl)-ureido)butanoate]",> 2500
15,"CN(C(=O)N[C@H](CC(=O)[O-])C[N+](C)(C)C)c1ccc(Oc2ccccc2)cc1 [Example S34, (R)-3-(3-methyl-3-(4-phenoxyphenyl)ureido)-4-(trimethyl-ammonio)butanoate]",100 to 1000
16,"C[N+](C)(C)C[C@@H](CC(=O)[O-])NC(=O)Nc1cccc(Oc2ccccc2)c1 [Example S38, (R)-3-(3-(3-Phenoxyphenyl)ureido)-4-(trimethylammonio)butanoate]",100 to 1000

# Continued, values first:
row,IC50 [µM],SMILES
1,10 to 100,"C[N+](C)(C)C[C@@H](CC(=O)[O-])NC(=O)c1ccc(C#Cc2ccccc2)o1 [Example S3, (R)-3-(5-(phenylethynyl)furan-2-carboxamido)-4-(trimethylammonio)-butanoate]"
2,10 to 100,"CCCCC#Cc1ccc(C(=O)N[C@H](CC(=O)[O-])C[N+](C)(C)C)o1 [Example S4, (R)-3-(5-(hex-1-ynyl)furan-2-carboxamido)-4-(trimethylammonio)butanoate]"
3,10 to 100,"C[N+](C)(C)C[C@@H](CC(=O)[O-])NC(=O)Nc1ccc(Oc2ccccc2)cc1 [Example S8, (R)-3-(3-(4-phenoxyphenyl)ureido)-4-(trimethylammonio)butanoate]"
4,10 to 100,"CCCCCc1ccc(NC(=O)N[C@H](CC(=O)[O-])C[N+](C)(C)C)cc1 [Example S15, (R)-3-Carboxy-N,N,N-trimethyl-2-(3-(4-pentylphenyl)ureido)propan-1-aminium]"
5,10 to 100,"C[N+](C)(C)C[C@@H](CC(=O)O)NC(=O)Nc1ccc(C(=O)c2ccccc2)cc1 [Example S16, (R)-2-(3-(4-Benzoylphenyl)ureido)-3-carboxy-N,N,N-trimethylpropan-1-aminium acetate]"
6,1 to 10,"CCCCCc1ccc(S(=O)(=O)N[C@H](CC(=O)O)C[N+](C)(C)C)cc1 [Example S23, (R)-3-(4-pentylphenylsulfonamido)-4-(trimethylammonio)butanoate 2,2,2-trifluoroacetate]"
7,≤ 1,"CCCCCCCc1ccc(NS(=O)(=O)N[C@H](CC(=O)[O-])C[N+](C)(C)C)cc1 [Example S27, (R)-3-(N-(4-heptylphenyl)sulfamoylamino)-4-(trimethylammonio)-butanoate]"
8,≤ 1,"CCCCCCCCc1ccc(NS(=O)(=O)N[C@H](CC(=O)[O-])C[N+](C)(C)C)cc1 [Example S30, (R)-3-(N-(4-octylphenyl)sulfamoylamino)-4-(trimethylammonio)butanoate]"
9,10 to 100,"CCCCCCCCCCCCN(c1ccccc1)S(=O)(=O)N[C@H](CC(=O)[O-])C[N+](C)(C)C [Example S32, (R)-3-(N-dodecyl-N-phenylsulfamoylamino)-4-(trimethylammonio)-butanoate]"
10,≤ 1,"C[N+](C)(C)C[C@@H](CC(=O)O)NC(=O)c1ccc(CCc2ccccc2)o1 [Example S42, (R)-3-(5-phenethylfuran-2-carboxamido)-4-(trimethylammonio)-butanoate]"
11,≤ 1,"C[N+](C)(C)C[C@@H](CC(=O)O)NC(=O)c1ccc(C#Cc2ccccc2)s1 [Example S43, (R)-3-(5-(phenylethynyl)thiophene-2-carboxamido)-4-(trimethylammonio)-butanoate]"
